Assay results reported in patent US11932623B2, “Uracil compounds and use thereof” (Sumitomo Chemical Company, Limited, priority 2018, dated 2024).

Assays:
Assay type in all cases: in vivo
[1] = test system: Ivyleaf morning glory (Ipomoea hederacea); test: Test Example 1: post-emergence foliar spray pot test, weed control efficacy; settings: for efficacy on controlling weeds against Ivyleaf morning glory (Ipomoea hederacea), in words: 20 or 10 gai/ha; for control efficacy, Ipomoea hederacea: foliar spray 204 L/ha on plants grown 15 days, assessed after 11 days in greenhouse, scale 0 to 100 (all dead)
From the text: (§1) In the Test Examples as described below, for the assessment of weeds-controlling efficacy, the efficacy is defined as “0” if the condition of budding or growth of test pants in the treated area indicates little or no difference compared to that of the untreated area at the time of the investigation.
(§2) The “untreated group” represents a group where a similar treatment procedure to that of the treated group except not using the compound A is done.
(§3) A plastic pot was filled with soil. Ivyleaf morning glory (Ipomoea hederacea), Redroot pigweed (Amaranthus retroflexus) and corn were seeded to the plastic pot, and the plants are grown in a greenhouse for 15 days. A prescribed amount of the formulation prepared by the method of the formulation example 1 was diluted with water containing 1% of Agridex (registered trademark) to obtain a diluted solution. The diluted solution was uniformly sprayed at a rate of 204 L/ha from the upper side of the plants such that the applied dose of the compound A was made to 20 gai/ha or 10 gai/ha. Thereafter, the plants were grown in a greenhouse for 11 days, and the control efficacies were assessed by the above-mentioned method. The results are shown in [Table 1].
(§4) The comparative test was conducted by using the compound B in place of the compound A according to a similar method to that described in the Test example 1.

[2] = test system: Redroot pigweed (Amaranthus retroflexus); test: as above; settings: for efficacy on controlling weeds against Redroot pigweed (Amaranthus retroflexus), in words: 20 or 10 gai/ha; for control efficacy, Amaranthus retroflexus: foliar spray 204 L/ha on plants grown 15 days, assessed after 11 days in greenhouse
From the text: as §1, §2, §3, §4

corn = test: Test Example 1: post-emergence foliar spray pot test, safety against useful plants (phytotoxicity); settings: for Corn (phytotoxicity score): foliar spray 204 L/ha on plants grown 15 days, assessed after 11 days in greenhouse
From the text: Further, Test Examples are used to show an efficacy of the compound A on controlling weeds and safety against useful plants (phytotoxicity)
as §1, §2, §3, §4

[3] = applied dose 10 gai/ha, scale 0 to 100 (all dead)
[4] = applied dose 20 gai/ha, scale 0 (no difference to untreated) to 100 (all dead)

Row | SMILES | efficacy on controlling weeds against Ivyleaf morning glory (Ipomoea hederacea), in words [1] | control efficacy, Ipomoea hederacea ([1]; applied dose 10 gai/ha) | control efficacy, Ipomoea hederacea ([1]; applied dose 20 gai/ha) | efficacy on controlling weeds against Redroot pigweed (Amaranthus retroflexus), in words [2] | control efficacy, Amaranthus retroflexus [2, 3] | control efficacy, Amaranthus retroflexus [2, 4] | phytotoxicity against corn, in words (corn; 20 or 10 gai/ha) | Corn (phytotoxicity score) (corn; [3]) | Corn (phytotoxicity score) (corn; [4]) | phytotoxicity against corn, in words (corn; in vivo)
1 | CCOC(=O)COc1ncccc1Oc1cc(-n2c(=O)cc(C(F)(F)F)n(C)c2=O)c(F)cc1Cl [Compound B] | high efficacies | 100 | 100 | high efficacies | 100 | 100 | high phytotoxicity | 100 | 100 | –
2 | CCOC(=O)COc1ncccc1Oc1cc(-n2c(=O)cc(C(F)(F)F)n(C)c2=O)c(Cl)cc1Cl [Compound A] | high efficacies | 100 | 100 | high efficacies | 100 | 100 | – | – | – | low phytotoxicity
